The experiment deals with T1, SIRT1 (Homo sapiens, UniProt Q96EB6).
T1 sequence (Q96EB6 1-747): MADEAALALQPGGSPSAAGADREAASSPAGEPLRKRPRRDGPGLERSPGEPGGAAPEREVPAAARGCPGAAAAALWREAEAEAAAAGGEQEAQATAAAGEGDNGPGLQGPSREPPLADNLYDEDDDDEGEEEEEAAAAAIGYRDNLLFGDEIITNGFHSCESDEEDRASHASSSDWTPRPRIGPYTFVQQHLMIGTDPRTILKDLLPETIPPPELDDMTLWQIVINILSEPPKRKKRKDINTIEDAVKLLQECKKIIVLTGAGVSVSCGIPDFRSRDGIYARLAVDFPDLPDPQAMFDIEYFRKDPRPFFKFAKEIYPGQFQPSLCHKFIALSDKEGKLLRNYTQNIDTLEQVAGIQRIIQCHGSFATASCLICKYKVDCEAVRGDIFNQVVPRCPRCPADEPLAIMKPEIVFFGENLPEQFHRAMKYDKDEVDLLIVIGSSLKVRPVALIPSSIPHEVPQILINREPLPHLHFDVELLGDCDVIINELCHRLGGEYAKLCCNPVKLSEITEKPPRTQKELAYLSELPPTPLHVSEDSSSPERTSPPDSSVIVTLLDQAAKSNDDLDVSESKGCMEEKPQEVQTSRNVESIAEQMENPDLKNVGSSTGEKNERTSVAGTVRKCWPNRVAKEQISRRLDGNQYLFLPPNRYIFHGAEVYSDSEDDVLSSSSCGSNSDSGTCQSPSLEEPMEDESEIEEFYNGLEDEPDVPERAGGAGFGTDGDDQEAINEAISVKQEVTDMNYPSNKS
Put plainly: Trp mass spectrometry assay of SIRT1 activation. The class given is biochemical. The note with it: for TRP Activity (EC1.5): EC1.5 = concentration that results in 150% activation of SIRT1; for Tryp AVG EC1.5 (μM): concentration giving 150% activation of SIRT1. The method in brief: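 N-terminal His-tagged human SIRT1 (10 nM, E. coli BL21(DE3)) with 0.5 μM Ac-RHKK(Ac)W-NH2 peptide and 120 μM βNAD+, 25 min at 25 °C in HEPES pH 7.5, formic acid stop. OAADPR or deacetylated peptide quantified by mass spectrometry; EC1.5 (50% activity increase over control) and Percent Maximum Activation reported.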

Setting [1] is: Trp peptide assay, maximum activity relative to control (100%), read-out: TRP MAX RESP (percent maximum fold activation).
Setting [2] is: Trp peptide substrate, percent maximum fold activation of SIRT1, read-out: Tryp % Fold Act.

The structures appear in SMILES notation. Like-named read-outs stand apart in the source and are kept apart here.

`Cc1cc(-c2ccc3c(n2)N(C(=O)NC2CCC2)[C@H]2CCN3C2)ccn1` [(9S)-N-cyclobutyl-5-(2-methylpyridin-4-yl)-1,6,8-triazatricyclo[7.2.1.0 {2,7}]dodeca-2(7),3,5-triene-8-carboxamide]: under “Trp peptide assay”, the “TRP Activity (EC1.5)” value was “B (B (EC1.5 1-25 μM))”. Moreover, the Emax under setting [1] is more than 150%.
For `Cc1cc(-c2ccc3c(n2)N(C(=O)NC2CCCC2)[C@H]2CCN3C2)ccn1` [(9S)-N-cyclopentyl-5-(2-methylpyridin-4-yl)-1,6,8-triazatricyclo[7.2.1.0 {2,7}]dodeca-2,4,6-triene-8-carboxamide], in that order: “B (B (EC1.5 1-25 μM))” and more than 150%.
Turning to `Cc1cc(-c2ccc3c(n2)N(C(=O)NC2CC2)[C@H]2CCN3C2)ccn1` [(9S)-N-cyclopropyl-5-(2-methylpyridin-4-yl)-1,6,8-triazatricyclo[7.2.1.0 {2,7}]dodeca-2,4,6-triene-8-carboxamide], the “TRP Activity (EC1.5)” value (Trp peptide assay) is given as “B (B (EC1.5 1-25 μM))”. Under “read-out: TRP MAX RESP (percent maximum fold activation)”, the Emax was more than 150%.
Take `Cc1cc(-c2ccc3c(n2)N(C(=O)Nc2ccc4[nH]cnc4n2)[C@H]2CCN3C2)ccn1` [(9S)-N-{1H-imidazo[4,5-b]pyridin-5-yl}-5-(2-methylpyridin-4-yl)-1,6,8-triazatricyclo[7.2.1.0 {2,7}]dodeca-2(7),3,5-triene-8-carboxamide]: the “TRP Activity (EC1.5)” value (Trp peptide assay) is recorded as “B (B (EC1.5 1-25 μM))”. Also, the Emax under setting [1] is more than 150%.
For `Cc1cc(-c2ccc3c(n2)N(C(=O)Nc2nccc4[nH]cnc24)[C@H]2CCN3C2)ccn1` [(9S)-N-{1H-imidazo[4,5-c]pyridin-4-yl}-5-(2-methylpyridin-4-yl)-1,6,8-triazatricyclo[7.2.1.0 {2,7}]dodeca-2,4,6-triene-8-carboxamide], in that order: “B (B (EC1.5 1-25 μM))” and more than 150%.
Take `O=C(Nc1ccnc(OC[C@H](O)CO)c1)N1c2nc(-c3cccc(C(F)(F)F)c3)ccc2N2CC[C@H]1C2` [(9S)-N-{2-[(2R)-2,3-dihydroxypropoxy]pyridin-4-yl}-5-[3-(trifluoromethyl)phenyl]-1,6,8-triazatricyclo[7.2.1.0 {2,7}]dodeca-2(7),3,5-triene-8-carboxamide]: the “TRP Activity (EC1.5)” value (Trp peptide assay) is given as “A (A (EC1.5<1 μM))”. Further, under setting [1], the Emax was more than 150%.
`O=C(Nc1ccnc(OC[C@H](O)CO)n1)N1c2nc(-c3cccc(C(F)(F)F)c3)ccc2N2CC[C@H]1C2` [(9S)-N-{2-[(2R)-2,3-dihydroxypropoxy]pyrimidin-4-yl}-5-[3-(trifluoromethyl)phenyl]-1,6,8-triazatricyclo[7.2.1.0 {2,7}]dodeca-2(7),3,5-triene-8-carboxamide]: the “TRP Activity (EC1.5)” value (Trp peptide assay) is recorded as “A (A (EC1.5<1 μM))”. For the same compound, the Emax under setting [1] is more than 150%.
With `O=C(Nc1ccnc(OC[C@@H](O)CO)c1)N1c2nc(-c3cccc(C(F)(F)F)c3)ccc2N2CC[C@H]1C2` [(9S)-N-{2-[(2S)-2,3-dihydroxypropoxy]pyridin-4-yl}-5-[3-(trifluoromethyl)phenyl]-1,6,8-triazatricyclo[7.2.1.0 {2,7}]dodeca-2,4,6-triene-8-carboxamide], the “TRP Activity (EC1.5)” value (Trp peptide assay) is recorded as “A (A (EC1.5<1 μM))”. Also, under setting [1], the Emax is more than 150%.
For `O=C(Nc1ccnc(OC[C@@H](O)CO)n1)N1c2nc(-c3cccc(C(F)(F)F)c3)ccc2N2CC[C@H]1C2` [(9S)-N-{2-[(2S)-2,3-dihydroxypropoxy]pyrimidin-4-yl}-5-[3-(trifluoromethyl)phenyl]-1,6,8-triazatricyclo[7.2.1.0 {2,7}]dodeca-2(7),3,5-triene-8-carboxamide], in that order: “A (A (EC1.5<1 μM))” and more than 150%.
For `O=C(Nc1ccnc(O[C@@H]2CCOC2)n1)N1c2nc(-c3cccc(C(F)(F)F)c3)ccc2N2CC[C@H]1C2` [(9S)-N-{2-[(3R)-oxolan-3-yloxy]pyrimidin-4-yl}-5-[3-(trifluoromethyl)phenyl]-1,6,8-triazatricyclo[7.2.1.0 {2,7}]dodeca-2(7),3,5-triene-8-carboxamide], in that order: “A (A (EC1.5<1 μM))” and more than 150%.
For `Cc1cc(-c2ccc3c(n2)N(C(=O)Nc2cnc4c(c2)OCCO4)[C@H]2CCN3C2)ccn1` [(9S)-N-{2H,3H-[1,4]dioxino[2,3-b]pyridin-7-yl}-5-(2-methylpyridin-4-yl)-1,6,8-triazatricyclo[7.2.1.0 {2,7}]dodeca-2,4,6-triene-8-carboxamide], in that order: “B (B (EC1.5 1-25 μM))” and more than 150%.
On to `O=C(Nc1cc(OC[C@H](O)CO)ccn1)N1c2nc(-c3cccc(C(F)(F)F)c3)ccc2N2CC[C@H]1C2` [(9S)-N-{4-[(2R)-2,3-dihydroxypropoxy]pyridin-2-yl}-5-[3-(trifluoromethyl)phenyl]-1,6,8-triazatricyclo[7.2.1.0 {2,7}]dodeca-2(7),3,5-triene-8-carboxamide], for which, under “Trp peptide assay”, the “TRP Activity (EC1.5)” value is listed as “A (A (EC1.5<1 μM))”. The Emax under setting [1] is more than 150%.
On to `O=C(Nc1cc(OC[C@@H](O)CO)ccn1)N1c2nc(-c3cccc(C(F)(F)F)c3)ccc2N2CC[C@H]1C2` [(9S)-N-{4-[(2S)-2,3-dihydroxypropoxy]pyridin-2-yl}-5-[3-(trifluoromethyl)phenyl]-1,6,8-triazatricyclo[7.2.1.0 {2,7}]dodeca-2(7),3,5-triene-8-carboxamide], for which, where the note is “Trp peptide assay”, the “TRP Activity (EC1.5)” value is listed as “A (A (EC1.5<1 μM))”. For the same compound, the Emax under setting [1] is more than 150%.
Take `O=C(Nc1cncc(OC[C@H](O)CO)n1)N1c2nc(-c3cccc(C(F)(F)F)c3)ccc2N2CC[C@H]1C2` [(9S)-N-{6-[(2R)-2,3-dihydroxypropoxy]pyrazin-2-yl}-5-[3-(trifluoromethyl)phenyl]-1,6,8-triazatricyclo[7.2.1.0 {2,7}]dodeca-2(7),3,5-triene-8-carboxamide]: the “TRP Activity (EC1.5)” value (Trp peptide assay) is given as “A (A (EC1.5<1 μM))”. For the same compound, the Emax under setting [1] was more than 150%.
On to `Cc1ccc(-c2ccc3c(n2)N(C(=O)Nc2cncc(OC[C@@H](O)CO)n2)[C@H]2CCN3C2)cn1` [(9S)-N-{6-[(2S)-2,3-dihydroxypropoxy]pyrazin-2-yl}-5-(6-methylpyridin-3-yl)-1,6,8-triazatricyclo[7.2.1.0 {2,7}]dodeca-2(7),3,5-triene-8-carboxamide], for which, under “Trp peptide assay”, the “TRP Activity (EC1.5)” value is “B (B (EC1.5 1-25 μM))”. Also, the Emax under setting [1] was more than 150%.
On to `O=C(Nc1cncc(OC[C@@H](O)CO)n1)N1c2nc(-c3cccc(C(F)(F)F)c3)ccc2N2CC[C@H]1C2` [(9S)-N-{6-[(2S)-2,3-dihydroxypropoxy]pyrazin-2-yl}-5-[3-(trifluoromethyl)phenyl]-1,6,8-triazatricyclo[7.2.1.0 {2,7}]dodeca-2(7),3,5-triene-8-carboxamide], for which the “TRP Activity (EC1.5)” value (Trp peptide assay) is given as “A (A (EC1.5<1 μM))”. Under setting [1], the Emax was more than 150%.
As for `O=C(Nc1ccncc1)N1c2nc(-c3cccc(C(F)(F)F)c3)ccc2N2CC(O)C1C2` (stereo not drawn) [Compound 114], under setting [2], the Emax was more than 150%.
For `O=C(Nc1cc(F)ccn1)N1c2nc(-c3cccc(OC(F)(F)F)c3)ccc2N2CC[C@H]1C2` [Compound 174], the Emax under setting [2] is more than 150%.
Regarding `Cc1cc(OCC(O)CO)nc(NC(=O)N2c3nc(-c4cccc(C(F)(F)F)c4)ccc3N3CC[C@H]2C3)n1` (stereo partly drawn) [Example 26], the “Tryp AVG EC1.5 (μM)” value (Trp peptide substrate) is “B (B (EC1.5 1-25 μM))”.
Same read-out and setting: the entry for `CCN(CC)C(=O)N1c2nc(-c3cccc(C(F)(F)F)c3)ccc2N2CC[C@H]1C2` [Example 52] is “C (C (EC1.5>25 μM))”.

The values above are taken from US9834558B2, “Substituted bridged urea analogs as sirtuin modulators” (GLAXOSMITHKLINE LLC, priority 2013, dated 2017).
